Test results: ChEMBL document CHEMBL4837195, “Palladium-mediated synthesis and biological evaluation of C-10b substituted Dihydropyrrolo[1,2-b]isoquinolines as antileishmanial agents” (Eur J Med Chem, 2021)

How the values were obtained:
[1] = test system: Leishmania amazonensis; assay: Antileishmanial activity against Leishmania […] MHOM/IN/80/DD8 promastigotes assessed as reduction in parasites for 48 hrs by resazurin dye based assay; assay type: functional, organism-based; settings: MHOM/IN/80/DD8, 48 h
[2] = Selectivity index, ratio of CC50 for mouse J774 cells to IC50 for antileishmanial activity against Leishmania […] MHOM/IN/80/DD8 promastigotes by resazurin dye based assay; assay type: toxicity; settings: read-out: Selectivity Index
[3] = test system: Leishmania donovani; assay: Antileishmanial activity against Leishmania donovani MHOM/Br/79/Maria promastigotes assessed as reduction in parasites for 48 hrs by resazurin dye based assay; assay type: functional, organism-based
[4] = Selectivity index, ratio of CC50 for mouse J774 cells to IC50 for antileishmanial activity against Leishmania donovani MHOM/Br/79/Maria promastigotes by resazurin dye based assay; assay type: toxicity; settings: read-out: Selectivity Index
[5] = test system: J774; assay: Cytotoxicity against mouse J774 cells assessed as reduction in cell viability after 24 hrs by resazurin dye based assay; assay type: functional
[6] = test system: Leishmania amazonensis; assay: Antileishmanial activity against Leishmania […] MHOM/IN/80/DD8 amastigotes infected in mouse J774 cells assessed as reduction in parasites for 48 hrs by resazurin dye based assay; assay type: functional, organism-based; settings: MHOM/IN/80/DD8, J774, 48 h
[7] = Selectivity index, ratio of CC50 for mouse J774 cells to IC50 for antileishmanial activity against Leishmania […] MHOM/IN/80/DD8 amastigotes by resazurin dye based assay; assay type: toxicity; settings: read-out: Selectivity Index
[8] = test system: Leishmania donovani; assay: Antileishmanial activity against Leishmania donovani MHOM/Br/79/Maria amastigotes infected in mouse J774 cells assessed as reduction in parasites for 48 hrs by resazurin dye based assay; assay type: functional, organism-based; settings: J774, 48 h
[9] = Selectivity index, ratio of CC50 for mouse J774 cells to IC50 for antileishmanial activity against Leishmania donovani MHOM/Br/79/Maria amastigotes by resazurin dye based assay; assay type: toxicity; settings: read-out: Selectivity Index

Row | SMILES | IC50 [1] [µM] | selectivity ratio [2] | IC50 [3] [µM] | selectivity ratio [4] | CC50 [5] [µM] | IC50 [6] [µM] | selectivity ratio [7] | IC50 [8] [µM] | selectivity ratio [9]
1 | CC1(Cc2ccc([N+](=O)[O-])cc2)c2ccccc2Cn2cccc21 (stereo not drawn) | 157 | > 2 | 159 | > 1.97 | ≥ 314 |  |  |  | 
2 | COc1cc2c(cc1OC)C(C)(Cc1cc(C(F)(F)F)cc(C(F)(F)F)c1)c1cccn1C2 (stereo not drawn) | 39.6 | 1.18 | 111 | 0.42 | 46.8 |  |  |  | 
3 | COc1cc2c(cc1OC)C(C)(CC#N)c1cccn1C2 (stereo not drawn) | 309 | > 1.14 | 226 | > 1.57 | ≥ 354 |  |  |  | 
4 | COc1cc2c(cc1OC)C(C)(C/C=C/c1ccccc1)c1cccn1C2 (stereo not drawn) | 12.2 | > 23 | 33.7 | > 8.27 | ≥ 278 | 69.3 | > 4.02 | 16.7 | > 16.6
5 | C=CCC1(C)c2cc(OC)c(OC)cc2Cn2cccc21 (stereo not drawn) | 23.3 | > 15.2 | 124 | > 2.84 | ≥ 353 | 43.5 | > 8.1 | 256 | > 1.38
6 | CC1(Cc2ccc([N+](=O)[O-])cc2)c2cc3c(cc2Cn2cccc21)OCO3 (stereo not drawn) | 8 | > 34.5 | 30.4 | > 9.09 | ≥ 276 | 77.1 | > 3.58 | 68.7 | > 4.02
7 | COc1ccc(CC2(C)c3cc(OC)c(OC)cc3Cn3cccc32)cc1 (stereo not drawn) | 26.4 | > 10.4 | 47.4 | > 5.8 | ≥ 275 | 51.6 | > 5.34 | 45 | > 6.12
8 | COc1cc2c(cc1OCc1ccccc1)Cn1cccc1C2(C)CC#N (stereo not drawn) | 24.8 | 7.86 | 34.4 | 5.68 | 195 |  |  |  | 
9 | COc1cc2c(cc1OC)C(C)(Cc1cc3ccc4cccc5ccc(c1)c3c45)c1cccn1C2 (stereo not drawn) | 36.7 | > 5.95 | 86 | > 2.54 | ≥ 219 |  |  |  | 
10 | CC1(CC#N)c2cc3c(cc2Cn2cccc21)OCO3 (stereo not drawn) | 77.4 | > 4.85 | 120 | > 3.13 | ≥ 376 |  |  |  | 
11 | COc1ccc2c(c1)Cn1cccc1C2(C)CC#N (stereo not drawn) | 123 | > 3.21 | 360 | > 1.1 | ≥ 396 |  |  |  | 
12 | COc1cc2c(cc1OC)C(Cc1ccc([N+](=O)[O-])cc1)(C(F)(F)F)c1cccn1C2 (stereo not drawn) | 3.93 | > 58.8 | 16.4 | > 14.1 | ≥ 231 | 56.7 | > 4.08 | 22.2 | > 10.4
13 | CC1(CC#N)c2ccc(OCc3ccccc3)cc2Cn2cccc21 (stereo not drawn) | 15.8 | 14 | 60.2 | 3.69 | 222 |  |  | 44.8 | 4.97
14 | COc1ccc(CC2(C)c3cc(OC)c(OC)cc3Cn3cccc32)cc1OC (stereo not drawn) | 3.3 | > 77 | 38.3 | > 6.63 | ≥ 254 | 60.8 | > 4.18 | 46.3 | > 5.49
15 | COc1cc2c(cc1OC)C(C)(Cc1ccc([N+](=O)[O-])cc1)c1cccn1C2 (stereo not drawn) | 18 | > 14.7 | 79.9 | > 3.31 | ≥ 264 | 56.1 | > 4.7 | 29.6 | > 8.92
16 | COc1ccc2c(c1OC)Cn1cccc1C2(C)CC#N (stereo not drawn) | 171 | > 2.07 |  |  | ≥ 354 |  |  |  | 
17 | COc1ccc(OC)c2c1Cn1cccc1C2(C)CC#N (stereo not drawn) | 93.9 | > 3.77 |  |  | ≥ 354 |  |  |  | 
18 | CC1(CC#N)c2ccc(F)cc2Cn2cccc21 (stereo not drawn) | 96.5 | > 4.31 | 192 | > 2.17 | ≥ 416 |  |  |  | 
19 | COc1cc2c(cc1OC)C(C)(Cc1ccccc1)c1cccn1C2 (stereo not drawn) | 17.1 | > 17.5 | 30.3 | > 10.1 | ≥ 300 | 33.6 | > 8.93 | 55 | > 5.45
20 | CCCCCCCCCCCCCCCCOP(=O)([O-])OCC[N+](C)(C)C [MILTEFOSINE] | 30.7 | 4.43 |  | 906 | 136 | 47.6 | 2.85 | 0.37 | 369
